Measured values taken from patent US12005078B2, “Genetically engineered drug resistant T cells and methods of using the same” (The UAB Research Foundation, priority 2015, dated 2024).

What was measured:
[1] = test system: X12P glioma; assay: Survival of glioma-bearing mice; type: in vivo
Source text: (§1) The expression of NKG2DL on tumor cells increases the overall potency of γδ T cell therapy. FIGS. 5A and 5B show the survival of X12P and X12T (TMZ resistant) glioma-bearing mice, respectively, in response to various treatments. […] The DRI treatment regimen increased median survival from 57 to 75 days over the TMZ treatment regimen. […] The DRI treatment regimen increased median survival from 22 to 27 days over the TMZ treatment regimen. The effect of the DRI treatment regimen could be increased by intensification of the administration of the γδ T cells and NK cells from a single administration per week (as shown in FIG. 2) to two administrations per week (data not shown).

[2] = test system: X12T glioma; assay: Survival of TMZ-resistant glioma-bearing mice; type: in vivo; details: cells given as single administration per week
Source text: as §1

**Q.** Which median survival [1] does the source give for `Cn1nnc2c(C(N)=O)ncn2c1=O` [TMZ, temozolomide] here?
**A.** 57 days

**Q.** What about the median survival [2] of the same compound?
**A.** 22 days
